Results taken from patent US20220411422A1, “ERBB RECEPTOR INHIBITORS” (Dizal (Jiangsu) Pharmaceutical Co., Ltd., priority 2018, published 2022).
pIC50: −log10 of the molar value.

Target: T1, wild type EGFR (Homo sapiens, UniProt P00533)
T1 construct: which expresses wild type EGFR protein; endogenous in cells; host or cells: A431
Assay: pEGFR cellular activity in A431 cell line
Type: cell-based
Description: A compound's activity of inhibition for EGFR WT can be evaluated with NCI-H838 (ATCC® CRL-5844™) and A431 cell line (the epidermoid carcinoma cell line A-431), which expresses wild type EGFR protein as the count screening to define the selectivity of the compound.
The compounds' inhibition of target modulation were determined as follows: NCI-H838 cells and A431 cells were sorted in 96 well plates (20000 cells/well) with the DMEM medium containing 1% FBS overnight and then treated with tested compounds at a series of concentrations (3 μM, 0.3 μM, 0.1 μM, 0.03 μM, 0.01 μM, 0.003 μM, 0.001 μM, 0.0001 μM). The plates were incubated for 4 h at 37° C. with 5% CO2 followed by the stimulation of recombinant hEGF (100 ng/ml for 10 Min, RD, Cat #236-EG) and then the EGFR (Y1068) phosphorylation level of cells in each well were measured with MSD Kit (MULTI-SPOT®96 4-Spot HB Prototype EGFR Triplex […]: pEGFR (Tyr1068), pEGFR (Tyr1173), Total EGFR (Cat #N45ZB-1). The assay is a electrochemiluminescent method (MESO SCALE DISCOVERY) for determining both phosphorylated and total EGFR of cells with an MSD SECTOR® Imager and then the ratio of p-EGFR/total EGFR can be generated by the machine. The percentage of inhibition was used the formula: % inhibition=100×[1−(ratio of sample well−ratio of Min ctrl well)/(ratio of Max−Ratio of Min ctrl well)]. […]

T1 sequence (P00533 25-1210): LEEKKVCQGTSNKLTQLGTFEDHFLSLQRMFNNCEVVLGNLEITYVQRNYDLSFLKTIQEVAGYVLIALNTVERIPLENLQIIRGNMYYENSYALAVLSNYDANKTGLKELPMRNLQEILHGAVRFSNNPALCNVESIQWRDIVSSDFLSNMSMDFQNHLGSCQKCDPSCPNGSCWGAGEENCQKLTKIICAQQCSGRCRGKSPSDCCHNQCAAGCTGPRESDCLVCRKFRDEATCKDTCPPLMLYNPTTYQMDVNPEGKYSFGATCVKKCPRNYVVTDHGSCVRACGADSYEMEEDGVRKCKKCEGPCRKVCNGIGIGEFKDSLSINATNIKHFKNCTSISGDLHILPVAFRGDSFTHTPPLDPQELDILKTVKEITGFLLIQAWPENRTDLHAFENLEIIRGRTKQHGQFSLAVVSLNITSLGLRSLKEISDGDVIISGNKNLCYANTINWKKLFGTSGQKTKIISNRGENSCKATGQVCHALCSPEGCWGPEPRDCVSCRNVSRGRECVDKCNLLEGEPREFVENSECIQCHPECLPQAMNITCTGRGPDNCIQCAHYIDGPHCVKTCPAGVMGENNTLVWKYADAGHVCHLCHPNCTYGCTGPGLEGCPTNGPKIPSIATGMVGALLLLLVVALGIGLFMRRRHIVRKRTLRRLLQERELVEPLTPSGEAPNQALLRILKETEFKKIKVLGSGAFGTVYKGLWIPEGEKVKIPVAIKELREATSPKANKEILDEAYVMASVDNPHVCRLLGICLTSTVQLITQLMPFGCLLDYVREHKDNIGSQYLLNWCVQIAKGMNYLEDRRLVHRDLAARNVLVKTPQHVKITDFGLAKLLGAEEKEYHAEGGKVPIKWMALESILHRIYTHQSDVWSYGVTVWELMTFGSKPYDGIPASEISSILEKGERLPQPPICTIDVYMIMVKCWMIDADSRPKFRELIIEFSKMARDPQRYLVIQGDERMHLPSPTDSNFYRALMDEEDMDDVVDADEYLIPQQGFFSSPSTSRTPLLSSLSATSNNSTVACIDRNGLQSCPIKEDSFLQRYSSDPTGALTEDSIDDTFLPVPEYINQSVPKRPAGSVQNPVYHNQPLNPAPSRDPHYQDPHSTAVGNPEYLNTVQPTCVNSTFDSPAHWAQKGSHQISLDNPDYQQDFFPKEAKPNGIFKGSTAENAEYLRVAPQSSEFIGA

## COc1cc(O[C@H]2CCN(C)CC2(F)F)c2c(Nc3ccc(Oc4ccn5ncnc5c4)c(C)c3)ncnc2c1 (single isomer, unassigned) [Compound 6]
  pIC50: 5.84
